The values that follow come from patent publication US12486259B2, “FXR agonist having pyrazine structure, and preparation method and use” (JIANGSU TASLY DIYI PHARMACEUTICAL CO., LTD., priority 2020, dated 2025).

Data set [1] has as its target T1, GST-labeled recombinant human FXR protein (Homo sapiens, UniProt Q96RI1).
T1 construct: purchased Invitroren (so in the source)
T1 sequence (Q96RI1 262-486 limits assumed): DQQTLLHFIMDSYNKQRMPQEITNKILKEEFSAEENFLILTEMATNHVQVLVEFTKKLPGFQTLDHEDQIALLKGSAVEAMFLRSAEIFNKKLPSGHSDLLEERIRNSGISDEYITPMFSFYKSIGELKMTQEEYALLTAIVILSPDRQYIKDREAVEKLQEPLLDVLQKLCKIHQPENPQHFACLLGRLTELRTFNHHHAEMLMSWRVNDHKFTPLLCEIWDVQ
T1 sequence (Q15788 676-700 partner limits assumed): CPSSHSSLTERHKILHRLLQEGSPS
The experiment in a line: Agonistic activity on FXR receptor (GST-FXR / SRC-1 bead assay, protein level). Format: biochemical. Particulars: for EC50: 0.4 nM FXR, 30 nM SRC-1, protein level; for FXR agonistic activity at protein level (in words): judgement on Table 1 results. As for the experimental part: Experimental procedures: FXR (GST-labeled recombinant human FXR protein, manufacturer: Invitroren, Item number: PV4835) and SRC-1 (steroid receptor co-activator-1) are thawed on ice. Three solutions of ABC are prepared by a buffer solution, solution A, 0.4 n M FXR and 30 nM SRC-1; solution B, 10 ug/ml Acceptor Beads; solution C, 10 ug/ml Donor Beads. Solution A is added to the plate at 15 uL per well. It is incubated at room temperature for 1 hour. Solution B is added to the plate at 7.5 uL per well. It is incubated at room temperature for 1 hour. Solution C is added to the plate at 7.5 uL per well. It is incubated at room temperature for 1 hour. It is read from the microplate reader Envision. The data are curve fitted by using Prism 5.0 to calculate the EC50.

The nature of the next data set: in vitro. The following applies: human; for Papp A→B: Caco-2, Papp A-B; for recovery: Caco-2, Recovery rate A-B. How it is done: The bi-directional transport of target compounds from apical side (AP) to basolateral side (BL) and from BL side to AP side is studied by using human colon adenocarcinoma cell line Caco-2 monolayer model. The transport parameters, apparent permeability coefficient (Papp) and efflux ratio are calculated by quantitative analysis with high performance liquid chromatography (HPLC).

Data set [2] concerns C57/BL6 mice fed MCD diet. As to the kind of experiment: Pharmacodynamic test in methionine-choline deficient diet (MCD) model of non-alcoholic fatty liver disease. Particulars: MCD mice, obeticholic acid 40 mpk. Format: in vivo. How it is done: Animal strain: C57/BL6, Animal Grade: SPF Grade, Gender: male, Animal Age: 8 weeks old, Animals Received Date: 2018 Sep. 28, Animal Source: Shanghai Lingchang Biotechnology Co. Ltd., Animal Certificate No: SCXK (Shanghai)2013-0018 2013001836799, Mouse feeding Environment: temperature 20-26° C., humidity 40-70%, 12 hour day and night cycle.
5% Solutol HS15/Normal saline: after Solutol HS15 (polyethylene glycol 15 hydroxystearate solubilizer) is dissolved in a water bath at 37° C., 5 ml of it is dissolved in 100 ml of normal saline, thoroughly stirred for later use.
Obeticholic acid/5% Solutol HS15/Normal saline: 0.15 ml Solutol HS15 is added to accurately weighed 12 mg obeticholic acid to fully dissolve it, and 2.85 ml normal saline is added, vigorously mixed and dissolved by the ultrasound. • TM-01 Group/5% Solutol HS15/Normal saline: 2.5 ml of 6 mg/ml TM-01 suspension is taken, 2.5 ml of 5% Solutol HS15/normal saline is added, and the mixture is mixed well. • TM-02 Group/5% Solutol HS15/Normal saline: 2.5 ml of 6 mg/ml TM-02 suspension is taken, 2.5 ml of 5% Solutol HS15/normal saline is added, and the mixture is mixed well. • TM-06 Group/5% Solutol HS15/Normal saline: 2.5 ml of 6 mg/ml TM-06 suspension is taken, 2.5 ml of 5% Solutol HS15/Normal saline is added, and the mixture is mixed well. • TM-09 Group/5% Solutol HS15/Normal saline: 2.5 ml of 6 mg/ml TM-09 suspension is taken, 2.5 ml of 5% Solutol HS15/Normal saline is added, and the mixture is mixed well.
Menstruum and test compounds are administered by gavage at a dose volume of 10 ml/kg;
After reaching the animal house, 70 8-week-old C57/BL6 mice are fed adaptively and randomly divided into 7 groups according to body weight after the average body weight reaches 23 g. They are given the model feed. The first group receives the control diet MCS and the remaining groups receive the MCD diet, while each group of mice receives compound treatment as follows: • Group 1. Control Group: MCS, menstruum, administered once daily by gavage; • Group 2. Model Group: MCD, menstruum, administered once daily by gavage; • Group 3. Obeticholic acid group: MCD, 40 mpk obeticholic acid, administered once daily by gavage; • Group 4. TM-01 Group: MCD, 30 mpk TM-01, administered once daily by gavage; • Group 5. TM-02 Group: MCD, 30 mpk TM-02, administered once daily by gavage; • Group 6. TM-06 Group: MCD, 30 mpk TM-06, administered once daily by gavage; • Group 7. TM-09 Group: MCD, 30 mpk TM-09, administered once daily by gavage; 2.4 Experimental Methods
Body weight and food intake are measured weekly during the experiment. Twenty-one days after administration, tail tips are bled with microcapillaries for AST, ALT measurements. Twenty-eight days after administration, mice are terminated, hearts are bled, and liver tissues are collected and weighed. One portion is snap frozen with liquid nitrogen for subsequent analysis and the other portion are fixed for pathological analysis.
Mouse blood is centrifuged at 5000 rpm for 10 minutes and supernatants are collected for determination of TG (triglycerides), TC (total cholesterol), HDL (high density lipoprotein), LDL (low density lipoprotein), AST (aspartate aminotransferase) and ALT (alanine aminotransferase).
AST and ALT after administration for three and four weeks are determined according to the instructions of kit. The blood lipid index 4 weeks after administration is sent to Adicon Medical Laboratory Co. Ltd. for detection.
The livers are removed from −80° C., homogenized in PBS (phosphate buffered saline), extracted with chloroform methanol organic phase, and subjected to TC and TG assays using the kit, normalized for protein content.
Four weeks after administration, the mice are anesthetized. The heart is bled, the liver is isolated and weighed. The right lobe is snapfrozen with liquid nitrogen and stored at −80° C. for liver lipid analysis. The left lobe is isolated and fixed in 10% formalin for subsequent HE and Sirius Red staining. […]

Where [3] appears, read: blood, 3 weeks, TM 30 mpk, gavage.
Where [4] appears, read: blood, 4 weeks, TM 30 mpk, gavage.
Setting [5] is: blood, after 4 weeks, TM 30 mpk.
Setting [6] is: liver, after 4 weeks, TM 30 mpk.

In the case of `O=C(O)c1cccc(N2CC(O)(c3ccc(OCc4c(-c5c(Cl)cccc5Cl)noc4C4CC4)cc3Cl)C2)c1` [Compound M2, reference compound], in data set [1], the EC50 (commonly the concentration giving half of the maximal effect) was 1.8 µM and the “FXR agonistic activity at protein level (in words)” value was “less active than the compounds of the present invention”.
On to `COCCc1ccc(OCC(O)CNC(C)C)cc1` (centres unmarked) [Metoprolol, reference compound], for which the Papp A→B (usually the apparent permeability from the apical to the basolateral side of a cell layer) in “in vitro” was found to be 18.1 ×10⁻⁶ cm/s; in the data set “in vitro” (Average), 18.1 ×10⁻⁶ cm/s; in “in vitro” (Sample-01), 19.5 ×10⁻⁶ cm/s; in the data set “in vitro” (Sample-02), 16.8 ×10⁻⁶ cm/s. Besides, the recovery came to 93.8% in “in vitro” (Average), 93.2% in “in vitro” (Sample-01) and 94.3% in the data set “in vitro” (Sample-02).
Regarding `CC(C)(C)NCC(O)COc1cccc2c1CC(O)C(O)C2` (centres unmarked) [Nadolol, reference compound], the Papp A→B in “in vitro” came out at 0.07 ×10⁻⁶ cm/s; in “in vitro” (Average), 0.07 ×10⁻⁶ cm/s; in the data set “in vitro” (Sample-01), 0.07 ×10⁻⁶ cm/s; in “in vitro” (Sample-02), 0.06 ×10⁻⁶ cm/s. Besides, the recovery in “in vitro” (Average) turned out to be 89.8%; in “in vitro” (Sample-01), 91.5%; in the data set “in vitro” (Sample-02), 88%.
With `OC1(c2cnc(OCc3c(-c4c(Cl)cccc4Cl)noc3C3CC3)cn2)CC(c2cccc(Br)c2)C1` (centres unmarked) [TM-03, 3-(3-bromophenyl)-1-(5-((5-cyclopropyl-3-(2,6-dichlorophenyl)isoxazol-4-yl)methoxy)pyrazine-2-yl) cyclobutanol], the EC50 in data set [1] was 0.24 µM.
Still for that read-out and setting: for `CS(=O)(=O)c1cccc(C2CC(O)(c3cnc(OCc4c(-c5c(Cl)cccc5Cl)noc4C4CC4)cn3)C2)c1` (centres unmarked) [TM-04, 1-(5-((5-cyclopropyl-3-(2,6-dichlorophenyl)isoxazol-4-yl)methoxy)pyrazine-2-yl)-3-(3-(methylsulfonyl)phenyl) cyclobutanol] the value was 1.35 µM.
With `OC1(c2cnc(OCc3c(-c4c(Cl)cccc4Cl)noc3C3CC3)cn2)CC(c2cccc(Sc3ccccc3)c2)C1` (centres unmarked) [TM-05, 1-(5-((5-cyclopropyl-3-(2,6-dichlorophenyl)isoxazol-4-yl)methoxy)pyrazine-2-yl)-3-(3-(phenylthio)phenyl) cyclobutanol], in data set [1], the EC50 was 5.01 µM and the “FXR agonistic activity at protein level (in words)” value was “poor activity”.
On the same counts, the results for `O=C(O)c1cccc(C2CC(O)(c3cnc(OCc4c(-c5c(Cl)cccc5Cl)noc4-c4ccccc4)cn3)C2)c1` (centres unmarked) [TM-07, 3-(3-(5-(5-phenyl-3-(2,6-dichlorophenyl)isoxazole-4-ylmethoxy)-2-pyrazine)-1-hydroxycyclobutane) benzoic acid] are 4.21 µM and “poor activity”.
On the same counts, the results for `Cc1cc(C(=O)O)cc(C2CC(O)(c3cnc(OCc4c(-c5c(Cl)cccc5Cl)noc4-c4ccccc4)cn3)C2)c1` (centres unmarked) [TM-10, 3-(3-(5-((3-(2,6-dichlorophenyl)-5-phenylisoxazol-4-yl)methoxy)pyrazine-2-yl)-3-hydroxycyclobutyl)-5-methyl benzoic acid] are 5.66 µM and “poor activity”.
Regarding `CC[C@H]1[C@@H](O)[C@@H]2[C@H](CC[C@]3(C)[C@@H]([C@H](C)CCC(=O)O)CC[C@@H]23)[C@@]2(C)CC[C@@H](O)C[C@@H]12` [obeticholic acid, reference compound], in data set [2] (0 week, TM compounds 30 mpk, once daily by gavage), the “Weight, 0 week” value was 23.72 ± 0.46 g. Moreover, the “Food intake, 1 week” value in data set [2] (1 week, TM 30 mpk, gavage) was determined as 2.992 ± 0.396 g. Moreover, the “Weight, 1 week” value in data set [2] (1 week, TM compounds 30 mpk, once daily by gavage) is 21.28 ± 0.42 g. In addition, in data set [2] (2 weeks, TM 30 mpk, gavage), the “Food intake, 2 weeks” value came to 2.945 ± 0.315 g. Besides, in data set [2] (2 weeks, TM compounds 30 mpk, once daily by gavage), the “Weight, 2 weeks” value was determined as 18.97 ± 0.41 g. Besides, the “Food intake, 3 weeks” value in data set [2] (3 weeks, TM 30 mpk, gavage) is listed as 2.092 ± 0.320 g. In addition, in data set [2] (3 weeks, TM compounds 30 mpk, once daily by gavage), the “Weight, 3 weeks” value was determined as 17.60 ± 0.35 g. In data set [2] (4 weeks, TM 30 mpk, gavage), the “Food intake, 4 weeks” value came to 2.073 ± 0.031 g. For the same compound, in data set [2] (4 weeks, TM compounds 30 mpk, once daily by gavage), the “Weight, 4 week” value was determined as 15.72 ± 0.35 g. In data set [2] (after 4 weeks, TM 30 mpk), this compound had a liver weight of 0.90 ± 0.03 g and a liver/body weight of 5.76 ± 0.26 %. Moreover, in data set [2] (setting [3]), the “ALT, 3 weeks” value is listed as 323.00 ± 37.79 U/L and the “AST, 3 weeks” value was determined as 197.24 ± 21.54 U/L. Further, in data set [2] (setting [4]), the “ALT, 4 weeks” value is 93.37 ± 10.36 U/L and the “AST, 4 weeks” value is given as 126.59 ± 20.25 U/L. In addition, in data set [2] (setting [5]), the “HDL (blood lipid)” value was 0.55 ± 0.01 mmol/L, the “LDL (blood lipid)” value was 2.80 ± 0.03 mmol/L, the “TC (blood lipid)” value stood at 0.86 ± 0.04 mmol/L and the “TG (blood lipid)” value was 0.56 ± 0.02 mmol/L. For the same compound, in data set [2] (liver pathology score (Table 12 criteria), 4 weeks, TM 30 mpk), the HE score is recorded as 2.6. The “Sirius red staining area” value in data set [2] (liver, 4 weeks, TM 30 mpk) was 0.344 ± 0.057%. In data set [2] (setting [6]), this compound yielded a liver TC of 35.7 ± 3.38 µmol/g protein and a liver TG of 298 ± 36.2 µmol/g protein.
